{
  "source": "patent US7455840B2",
  "about": "“Compositions and methods to reduce mutagenesis” (priority 2003, dated 2008)",
  "key": {"[1]": {"system": "ATCC 25922-ΔlacZ(gyrA(S83L))", "test": "second step mutation rate to 650 ng/ml ciprofloxacin resistance", "format": "cell-based, E. coli", "details": "wild-type strain already resistant to 35 ng/ml, evolving resistance to 650 ng/ml ciprofloxacin", "excerpt": "(§3) Error bars represent standard deviation from two independent rate determinations."}, "[2]": {"system": "ATCC 25922-lexA(S119A)(gyrA(S83L))", "test": "second step mutation rate to 650 ng/ml ciprofloxacin resistance", "format": "cell-based, E. coli", "details": "lexA(S119A) strain already resistant to 35 ng/ml, evolving resistance to 650 ng/ml ciprofloxacin", "excerpt": "as §3"}, "[3]": {"system": "E. coli K-12 (MG1655) isogenic loss of function strains", "test": "ciprofloxacin MIC of isogenic strains (Table 5)", "details": "Escherichia coli"}, "ATCC 25922-lexA(S119A)": {"system": "ATCC 25922-lexA(S119A)", "test": "mouse thigh infection treated with ciprofloxacin, resistant colonies", "details": "mice given approximately cytostatic ciprofloxacin dose"}, "E. coli MG1655": {"system": "E. coli MG1655", "test": "pre-exposure to rifampicin, then plating on 35 ng/mL ciprofloxacin", "format": "cell-based"}, "[4]": {"system": "LacZ strain (ATCC 25922-ΔlacZ)", "test": "in vitro susceptibility testing (NCCLS method), rifampin MIC", "format": "cell-based, E. coli", "details": "Escherichia coli", "method": "(§1) In vitro susceptibility testing of strains was preformed using the NCCLS method. (See National Committee for Clinical Laboratory Standards. 1997. Reference method for broth dilution anti-fungal susceptibility testing of yeasts. Approved standard M27-A. National Committee for Clinical Laboratory Standards, Wayne, Pa.) Eight colonies from each group at the 72 hr time point from MHA plate with and without rifampin were obtained. Minimum inhibitory concentrations (“MICs”) were performed in duplicate on three occasions on each colony. […] Minimum inhibitory concentrations of both the LexA and LacZ strains pre-treatment=8.0 mg/L."}, "[5]": {"system": "LexA strain (ATCC 25922 lexA(S119A))", "test": "in vitro susceptibility testing (NCCLS method), rifampin MIC", "format": "cell-based, E. coli", "details": "Escherichia coli", "method": "as §1"}, "ATCC 25922 lexA(S119A) [6]": {"system": "ATCC 25922 lexA(S119A)", "test": "in vitro susceptibility testing with rifampin, Example 8", "format": "cell-based, E. coli", "method": "(§2) In vitro susceptibility testing was performed with rifampin on the parent strains and on cells isolated from the agar plates after therapy."}, "E. coli ATCC 25922-ΔlacZ [7]": {"system": "E. coli ATCC 25922-ΔlacZ", "test": "in vitro susceptibility testing with rifampin, Example 8", "format": "cell-based", "details": "Escherichia coli", "method": "as §2"}, "E. coli ATCC 25922-ΔlacZ [8]": {"system": "E. coli ATCC 25922-ΔlacZ", "test": "neutropenic Swiss ICR mouse thigh infection treated with rifampin, CFU determination", "details": "lacZ Strain; rifampin 100 mg/kg subcutaneous every 12 hours; 96 h", "description": "Two hours after infection the mice received rifampin at 100 mg/kg (subcutaneous) every 12 hours. The mice continued the rifampin regimen until they were sacrificed. Two mice were sacrificed at 0, 24, 48, 72 and 96 hours. The thighs were removed, homogenized, 1:10 serial diluted, and plated for CFU determination. Homogenates were plated on MH agar (NHA) to quantify the entire population of organisms and on rifampin containing MHA plates (16 mg/L) to quantify the population of organisms with a rifampin resistance phenotype."}, "ATCC 25922 lexA(S119A) [9]": {"system": "ATCC 25922 lexA(S119A)", "test": "neutropenic CD1 mouse thigh infection treated with rifampin, colonies on rifampin plates", "details": "rifampin 100 mg/kg twice daily subcutaneous; plates 128 mg/L; over the 72 h study period", "description": "(§4) Two hours after infection mice were treated with rifampin 100 mg/kg twice daily via the subcutaneous route. Groups of two mice were sacrificed at the started of therapy (zero hour) and every 24 h for a period of 72 h. After euthanasia, thigh were removed, homogenized, diluted, and plated for CFU enumeration (lower limit of detection is 2 log cfu/thigh). Homogenate dilutions were plated on MHA with and without rifampin (128 mg/L)."}, "E. coli ATCC 25922-ΔlacZ [10]": {"system": "E. coli ATCC 25922-ΔlacZ", "test": "neutropenic CD1 mouse thigh infection treated with rifampin, colonies on rifampin plates", "details": "rifampin 100 mg/kg twice daily subcutaneous; plates 128 mg/L; after 72 h of therapy", "description": "as §4"}, "LexA": {"target": "LexA (Escherichia coli, UniProt P0A7C2)", "sequence (P0A7C2 whole entry)": "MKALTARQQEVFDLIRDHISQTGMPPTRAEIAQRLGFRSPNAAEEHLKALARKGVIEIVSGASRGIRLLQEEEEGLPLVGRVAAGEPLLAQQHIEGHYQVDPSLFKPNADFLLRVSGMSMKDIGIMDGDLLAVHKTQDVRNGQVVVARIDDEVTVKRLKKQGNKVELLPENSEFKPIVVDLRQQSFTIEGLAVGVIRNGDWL", "details": "peptide at 1.5 mM; LexA 5 uM, 0.25 uM activated RecA, 37 degrees, 30 min (FIG. 20)", "description": "Cleavage of LexA was initiated by the addition of 0.25 uM activated RecA. The mixture was incubated at 37 degrees for 30 min. Aliquots were removed and quenched in aqueous acetonitrile containing 0.1% TFA.\nThe cleavage of LexA protein was monitored by HPLC using a gradient of 30 to 90% buffer B (9.9% H2O, 90% CH3CN, 0.1% TFA) in buffer A(98% H2O, 1.9% CH3CN, 0.1% TFA) and recording absorbance at 214 nm. […] Error bars represent one standard deviation of three separate experiments."}, "[11]": {"details": "ATCC25922, colonies from the 72 hr time point of rifampin therapy in mice, read-out: Minimum Inhibitory Concentrations, Post"}, "[12]": {"details": "ATCC25922, pre-treatment, read-out: Minimum Inhibitory Concentrations, Pre"}},
  "note": "Where two headings read alike, the source gives them in different places.",
  "data": [
    {"molecule": "O=C(O)c1cn(C2CC2)c2cc(N3CCNCC3)c(F)cc2c1=O", "note": "[ciprofloxacin]", "values": [
      {"measurement": "'second step' mutation rate", "setting": "[1]", "value": "1.9 (±0.21)×10^−4 mutants/(cell day)"},
      {"measurement": "'second step' mutation rate", "setting": "[2]", "value": "5.5 (±4.9)×10^−7 mutants/(cell day)"},
      {"measurement": "MIC", "setting": "[3]; MG1655, read-out: ciprofloxacin MIC, strain lexA (S119A), WT gyrA", "value": 0.03, "unit": "µg/mL"},
      {"measurement": "MIC", "setting": "[3]; MG1655, read-out: ciprofloxacin MIC, strain lexA (S119A), gyrA S83L", "value": 0.35, "unit": "µg/mL"},
      {"measurement": "MIC", "setting": "[3]; MG1655, read-out: ciprofloxacin MIC, strain lexA (S119A), gyrA S83Δ", "value": 0.25, "unit": "µg/mL"},
      {"measurement": "MIC", "setting": "[3]; MG1655, read-out: ciprofloxacin MIC, strain ΔdinB, WT gyrA", "value": 0.035, "unit": "µg/mL"},
      {"measurement": "MIC", "setting": "[3]; MG1655, read-out: ciprofloxacin MIC, strain ΔdinB, gyrA S83L", "value": 0.45, "unit": "µg/mL"},
      {"measurement": "MIC", "setting": "[3]; MG1655, read-out: ciprofloxacin MIC, strain ΔdinB, gyrA S83Δ", "value": 0.25, "unit": "µg/mL"},
      {"measurement": "MIC", "setting": "[3]; MG1655, read-out: ciprofloxacin MIC, strain ΔdinB, ΔumuDC, WT gyrA", "value": 0.035, "unit": "µg/mL"},
      {"measurement": "MIC", "setting": "[3]; MG1655, read-out: ciprofloxacin MIC, strain ΔdinB, ΔumuDC, gyrA S83L", "value": 0.45, "unit": "µg/mL"},
      {"measurement": "MIC", "setting": "[3]; MG1655, read-out: ciprofloxacin MIC, strain ΔdinB, ΔumuDC, gyrA S83Δ", "value": 0.25, "unit": "µg/mL"},
      {"measurement": "MIC", "setting": "[3]; MG1655, read-out: ciprofloxacin MIC, strain ΔlacZ, WT gyrA", "value": 0.035, "unit": "µg/mL"},
      {"measurement": "MIC", "setting": "[3]; MG1655, read-out: ciprofloxacin MIC, strain ΔlacZ, gyrA S83L", "value": 0.45, "unit": "µg/mL"},
      {"measurement": "MIC", "setting": "[3]; MG1655, read-out: ciprofloxacin MIC, strain ΔlacZ, gyrA S83Δ", "value": 0.25, "unit": "µg/mL"},
      {"measurement": "MIC", "setting": "[3]; MG1655, read-out: ciprofloxacin MIC, strain ΔpolB, WT gyrA", "value": 0.03, "unit": "µg/mL"},
      {"measurement": "MIC", "setting": "[3]; MG1655, read-out: ciprofloxacin MIC, strain ΔpolB, gyrA S83L", "value": 0.45, "unit": "µg/mL"},
      {"measurement": "MIC", "setting": "[3]; MG1655, read-out: ciprofloxacin MIC, strain ΔpolB, gyrA S83Δ", "value": 0.25, "unit": "µg/mL"},
      {"measurement": "MIC", "setting": "[3]; MG1655, read-out: ciprofloxacin MIC, strain ΔpolB, ΔdinB, WT gyrA", "value": 0.025, "unit": "µg/mL"},
      {"measurement": "MIC", "setting": "[3]; MG1655, read-out: ciprofloxacin MIC, strain ΔpolB, ΔdinB, gyrA S83L", "value": 0.45, "unit": "µg/mL"},
      {"measurement": "MIC", "setting": "[3]; MG1655, read-out: ciprofloxacin MIC, strain ΔpolB, ΔdinB, gyrA S83Δ", "value": 0.25, "unit": "µg/mL"},
      {"measurement": "MIC", "setting": "[3]; MG1655, read-out: ciprofloxacin MIC, strain ΔpolB, ΔdinB, ΔumuDC, WT gyrA", "value": 0.025, "unit": "µg/mL"},
      {"measurement": "MIC", "setting": "[3]; MG1655, read-out: ciprofloxacin MIC, strain ΔpolB, ΔdinB, ΔumuDC, gyrA S83L", "value": 0.45, "unit": "µg/mL"},
      {"measurement": "MIC", "setting": "[3]; MG1655, read-out: ciprofloxacin MIC, strain ΔpolB, ΔdinB, ΔumuDC, gyrA S83Δ", "value": 0.25, "unit": "µg/mL"},
      {"measurement": "MIC", "setting": "[3]; MG1655, read-out: ciprofloxacin MIC, strain ΔpolB, ΔumuDC, WT gyrA", "value": 0.025, "unit": "µg/mL"},
      {"measurement": "MIC", "setting": "[3]; MG1655, read-out: ciprofloxacin MIC, strain ΔpolB, ΔumuDC, gyrA S83L", "value": 0.45, "unit": "µg/mL"},
      {"measurement": "MIC", "setting": "[3]; MG1655, read-out: ciprofloxacin MIC, strain ΔpolB, ΔumuDC, gyrA S83Δ", "value": 0.25, "unit": "µg/mL"},
      {"measurement": "MIC", "setting": "[3]; MG1655, read-out: ciprofloxacin MIC, strain ΔrecD, WT gyrA", "value": 0.035, "unit": "µg/mL"},
      {"measurement": "MIC", "setting": "[3]; MG1655, read-out: ciprofloxacin MIC, strain ΔrecD, gyrA S83L", "value": 0.35, "unit": "µg/mL"},
      {"measurement": "MIC", "setting": "[3]; MG1655, read-out: ciprofloxacin MIC, strain ΔrecD, gyrA S83Δ", "value": 0.25, "unit": "µg/mL"},
      {"measurement": "MIC", "setting": "[3]; MG1655, read-out: ciprofloxacin MIC, strain ΔumuDC, WT gyrA", "value": 0.035, "unit": "µg/mL"},
      {"measurement": "MIC", "setting": "[3]; MG1655, read-out: ciprofloxacin MIC, strain ΔumuDC, gyrA S83L", "value": 0.45, "unit": "µg/mL"},
      {"measurement": "MIC", "setting": "[3]; MG1655, read-out: ciprofloxacin MIC, strain ΔumuDC, gyrA S83Δ", "value": 0.25, "unit": "µg/mL"},
      {"measurement": "Colonies isolated on plates containing ciprofloxacin", "setting": "ATCC 25922-lexA(S119A); day 1 post infection, plates 20 ng/mL", "value": 3},
      {"measurement": "Colonies isolated on plates containing ciprofloxacin", "setting": "ATCC 25922-lexA(S119A); day 1 post infection, plates 80 ng/mL", "value": 1},
      {"measurement": "Colonies isolated on plates containing ciprofloxacin", "setting": "ATCC 25922-lexA(S119A); day 2 post infection, plates 20 ng/mL", "value": 2},
      {"measurement": "Colonies isolated on plates containing ciprofloxacin", "setting": "ATCC 25922-lexA(S119A); day 2 post infection, plates 80 ng/mL", "value": 0}
    ]},
    {"molecule": "CO[C@H]1/C=C/O[C@@]2(C)Oc3c(C)c(O)c4c(O)c(c(/C=N/N5CCN(C)CC5)c(O)c4c3C2=O)NC(=O)/C(C)=C\\C=C\\[C@H](C)[C@H](O)[C@@H](C)[C@@H](O)[C@@H](C)[C@H](OC(C)=O)[C@@H]1C", "note": "[rifampin]", "values": [
      {"measurement": "effect on number of ciprofloxacin resistant colonies", "setting": "E. coli MG1655; 4 mg/mL rifampicin in PBS, four days, 37° C., plated on 35 ng/mL ciprofloxacin", "value": "no effect"},
      {"measurement": "effect on number of ciprofloxacin resistant cells", "setting": "E. coli MG1655; 12 mg/mL rifampicin in PBS, four days, 37° C., plated on 35 ng/mL ciprofloxacin", "value": "dramatic increase"},
      {"measurement": "effect on number of ciprofloxacin resistant cells", "setting": "E. coli MG1655; 36 mg/mL rifampicin in PBS, four days, 37° C., plated on 35 ng/mL ciprofloxacin", "value": "dramatic increase"},
      {"measurement": "effect on number of ciprofloxacin resistant cells in umuDC deletion strain", "setting": "E. coli MG1655; umuDC deletion stain, 12 or 36 mg/mL rifampicin", "value": "essentially completely lost"},
      {"measurement": "MIC", "setting": "[4]; [11]", "value": "> 16400", "unit": "µg/mL"},
      {"measurement": "MIC", "setting": "[4]; [12]", "value": 8, "unit": "µg/mL"},
      {"measurement": "MIC", "setting": "[5]; [11]", "value": "16 to 32", "unit": "µg/mL"},
      {"measurement": "MIC", "setting": "[5]; [12]", "value": 8, "unit": "µg/mL"},
      {"measurement": "MIC", "setting": "ATCC 25922 lexA(S119A) [6]; Escherichia coli, ATCC25922, parent strain, read-out: MIC", "value": 8, "unit": "µg/mL"},
      {"measurement": "MIC", "setting": "ATCC 25922 lexA(S119A) [6]; colonies after therapy", "value": 8.0, "unit": "µg/mL"},
      {"measurement": "MIC", "setting": "E. coli ATCC 25922-ΔlacZ [7]; ATCC25922, colonies isolated from the rifampin containing plates after therapy", "value": "> 256", "unit": "µg/mL"},
      {"measurement": "MIC", "setting": "E. coli ATCC 25922-ΔlacZ [7]; ATCC25922, parent strain", "value": 8, "unit": "µg/mL"},
      {"measurement": "CFU/Thigh, Media (outcome of mice)", "setting": "E. coli ATCC 25922-ΔlacZ [8]", "value": "mice dead."},
      {"measurement": "colonies on rifampin containing plates", "setting": "ATCC 25922 lexA(S119A) [9]", "value": "no colonies grew"},
      {"measurement": "colonies on rifampin containing plates", "setting": "E. coli ATCC 25922-ΔlacZ [10]", "value": "large number"}
    ]},
    {"molecule": "VAAGEPL [peptide 3]", "values": [
      {"measurement": "inhibition of LexA's autocleavage", "setting": "LexA", "value": "inhibition"}
    ]}
  ]
}
